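96-well plates; 48 h exposure; 5 concentrations. Endpoints by linear interpolation between flanking doses. Not reached: highest tested concentration assigned. GI50 marks 50% less growth. The concentration for full growth arrest is given as TGI.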 A value given as a limit tells only on which side of the number the result lay.

What all share (assay): NCI tumour cell line growth inhibition, 48 h
Experiment [1] relates to RXF 393 renal.
The subject of experiment [2] is HL-60(TB) leukemia.
For experiment [3], the system named is NCI-H460 lung.
In experiment [4] the test system is A498 renal.
The test system of experiment [5] is LOX IMVI melanoma.
Experiment [6] concerns HCC-2998 colon.
The subject of experiment [7] is U251 CNS.
For experiment [8], the system named is IGROV1 ovarian.
The subject of experiment [9] is 786-0 renal.
The test system of experiment [10] is UACC-62 melanoma.

`CCOC(=O)c1oc2ccc([N+](=O)[O-])c3c2c1CCC3`: the TGI in experiment [1] is 59.6 µM; in experiment [2], over 100 µM; in experiment [3], over 100 µM; in [4], over 100 µM; in [5], over 88.1 µM; in experiment [6], over 100 µM. In addition, the TGI in [7] was 59.2 µM; in experiment [8], over 100 µM; in experiment [9], 84.9 µM; in experiment [10], over 54.8 µM.

Turning to `O=[n+]1c2ccccc2n([O-])c2cc(Cl)ccc21`, the GI50 in [1] was 3.03 µM; in experiment [2] it was 2.07 µM; in [3], 2.05 µM; in [4], 1.14 µM; in experiment [5] it was 2.83 µM; in experiment [6], 6.81 µM. In addition, the GI50 was 2.71 µM in experiment [7], 1.86 µM in [8], 3.12 µM in experiment [9] and 6.17 µM in experiment [10]. Also, the TGI in experiment [1] is 10 µM; in experiment [2], 4.47 µM; in [3], 14.7 µM; in experiment [4] it was 14.7 µM; in experiment [5], 11.9 µM; in experiment [6], 20.5 µM. Besides, the TGI in experiment [7] is 12 µM; in experiment [8] it was 6.95 µM; in experiment [9], 13.4 µM; in [10], 23.8 µM.

For `O=c1c(NO)c([N+](=O)[O-])cnn1-c1ccccc1`, the TGI is 12.3 µM in experiment [1]; 3.14 µM in experiment [2]; 13.1 µM in experiment [3]; 50 µM in [4]; 3.66 µM in [5]; 9.86 µM in [6]. Also, the TGI was found to be 8.07 µM in experiment [7], 41.1 µM in experiment [8], 12.7 µM in [9] and 10.8 µM in experiment [10].

As for `COc1cc(N2CCN(C(C)C)CC2)ccc1Nc1nc(Nc2cccc(F)c2C(=O)O)c2cc[nH]c2n1`, the GI50 in experiment [1], in experiment [2], in experiment [3], in experiment [4], in experiment [5] and in experiment [6] was over 25 µM in each case. Moreover, the GI50 in [7], in experiment [8], in [9] and in experiment [10] was over 25 µM throughout. In addition, the TGI in experiment [1], in [2], in [3], in experiment [4], in [5] and in experiment [6] was over 25 µM each time. Also, the TGI in experiment [7], in experiment [8], in experiment [9] and in experiment [10] was over 25 µM each time.

With `CCN(CC)CCN(Cc1ccc(F)cc1)c1ccc(CO)c(Cl)c1`, the GI50 is 31.2 µM in experiment [1]; 23.1 µM in experiment [2]; 1.17 µM in [3]; 1.55 µM in experiment [4]; 21.1 µM in experiment [5]; 3.09 µM in experiment [6]. For the same molecule, the GI50 in [7] was 22.8 µM; in experiment [8], 0.832 µM; in experiment [9], 30.2 µM; in experiment [10], 6.07 µM. Moreover, the TGI in [1] is over 69.3 µM; in [2], over 58.5 µM; in [3], 3.97 µM; in [4] it was 3.18 µM; in experiment [5] it was 52.5 µM; in [6], 12.8 µM. In addition, the TGI is over 100 µM in [7], 3.61 µM in experiment [8], over 100 µM in experiment [9] and 20.8 µM in [10].

Consider `COc1ccc(/C=C2\CN(Cc3cn(CCNc4ccnc5cc(Cl)ccc45)nn3)C/C(=C\c3ccc(OC)c(OC)c3)C2=O)cc1OC`, for which the GI50 was 1.81 µM in experiment [1]; 2.42 µM in experiment [2]; 2.22 µM in experiment [3]; 2.53 µM in experiment [4]; 2.1 µM in [5]; 1.96 µM in [6]. For the same molecule, the GI50 was 3.2 µM in [7], 2.67 µM in experiment [8], 3.35 µM in [9] and 2.14 µM in experiment [10]. The TGI worked out at 3.62 µM in experiment [1]; 9.37 µM in experiment [2]; 5.74 µM in experiment [3]; 13.2 µM in [4]; 4.82 µM in [5]; 3.62 µM in experiment [6]. Further, the TGI is 27.7 µM in [7], 7.09 µM in experiment [8], 12.4 µM in [9] and 5.39 µM in [10].

Consider `Cc1[nH]nc2c1N=C(c1ccccc1F)c1cc(C(N)=O)ccc1N2`, for which the GI50 is 0.975 µM in [1]; 5.97 µM in [2]; 3.33 µM in experiment [3]; 1.08 µM in experiment [4]; 2.04 µM in experiment [5]; 8.51 µM in experiment [6]. Besides, the GI50 in experiment [7] is 0.71 µM; in experiment [8], 8.29 µM; in experiment [9] it was 2.82 µM; in experiment [10] it was 4.11 µM. Moreover, the TGI in experiment [1] is 6.15 µM; in [2], 14.4 µM; in [3], over 25 µM; in experiment [4], 6.02 µM; in experiment [5], 13.2 µM; in experiment [6], over 25 µM. For the same molecule, the TGI in [7] was 10.2 µM; in [8] it was over 22.5 µM; in [9], over 25 µM; in experiment [10], 9.17 µM.

(Values after PubChem BioAssay (NCI).)
